According to EP4752142A1, “5-HT2A RECEPTOR AGONIST, AND PREPARATION METHOD THEREFOR AND USE THEREOF” (Innovstone Therapeutics Limited, priority 2023, dated 2025):
Where two headings read alike, the source gives them in different places.

Target: 5-HT2A receptor (Homo sapiens, UniProt P28223)
Experiment: 5-HT2A receptor isotope competition affinity assay
Format: binding
Description: A radiolabeled ligand (agonist or antagonist) incubated with receptor protein could form a receptor-ligand complex. An added test compound could compete with the isotopically labeled ligand for the receptor binding, eventually forming a relative steady-state equilibrium. The affinity of the test compound for the receptor was indirectly evaluated by measuring the dissociation of the isotopically labeled ligand from the receptor.
A 100x serial gradient dilution of compounds was prepared in DMSO, starting from 1 mM with 4-fold serial dilutions, resulting in 10 concentration points. Using a pipettor, 1 µL of each gradient concentration of the test compound (final concentration starting at 10 µM, 4-fold serial dilutions, 10 concentration points) was transferred to a 96-well assay plate, to each well of which 49 µL of 5-HT2A receptor protein (102 µg/mL, prepared in an assay buffer: 50 mM Tris-HCl, pH 7.4) had been added in advance (final concentration 5 µg/well). This was followed by the addition of 50 µL of isotopically labeled [^3H]-Ketanserin (2 nM, 2× final concentration, prepared in the assay buffer). The plate was sealed and incubated on a shaker at room temperature for 1 hour. The reaction mixture was filtered through a Unifilter-96 GF/C filter plate pre-treated with 0.3% PEI. The filter plate was washed with a precooled (4°C) assay buffer and then dried in an incubator at 50°C. A scintillation liquid was added, and the plate was read using a MicroBeta2 instrument. The percentage inhibition was calculated using the equation: %Inhibition=(CountHigh Signal Control-CountSample)/(CountHigh Signal Control-CountLow Signal Control)*100. A four-parameter logistic fit was used to calculate the IC50 value. High Signal Control: No compound group (the same volume of DMSO substituted). Low Signal Control: Ketanserin group (non-isotopically labeled, 2× final concentration). Table 1: Results of 5-HT2A receptor isotope competition affinity assay, Ki Values

[1] = competition with [3H]-Ketanserin, 1 hour, room temperature, read-out: 5-HT2A receptor/Ki

Sequence of 5-HT2A receptor (P28223 whole entry): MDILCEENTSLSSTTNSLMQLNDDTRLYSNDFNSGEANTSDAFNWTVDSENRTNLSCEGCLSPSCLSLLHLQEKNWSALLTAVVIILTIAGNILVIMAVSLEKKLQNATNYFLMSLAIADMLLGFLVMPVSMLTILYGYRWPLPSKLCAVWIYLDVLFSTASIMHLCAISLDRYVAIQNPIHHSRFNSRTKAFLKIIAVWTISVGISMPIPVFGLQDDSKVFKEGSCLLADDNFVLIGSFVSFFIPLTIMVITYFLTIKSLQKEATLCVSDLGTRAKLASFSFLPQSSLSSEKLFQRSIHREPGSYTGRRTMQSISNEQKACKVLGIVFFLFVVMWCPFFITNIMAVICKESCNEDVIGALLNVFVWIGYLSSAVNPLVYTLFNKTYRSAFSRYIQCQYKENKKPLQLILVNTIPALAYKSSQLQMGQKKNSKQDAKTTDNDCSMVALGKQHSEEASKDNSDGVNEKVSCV

| Structure (SMILES) | Ki [1] | Ki |
| --- | --- | --- |
| COc1ccccc1CCN1CCC(c2c[nH]c3cccc(O)c23)C1 (centres unmarked) [Compound 1, 3-(1-(2-(2-methoxyphenyl)ethyl)pyrrolidin-3-yl)-1H-indol-4-ol] | < 100 nM | – |
| COc1ccccc1CCCN1CCCC(c2c[nH]c3cccc(O)c23)C1 (centres unmarked) [Compound 4, 3-(1-(3-(2-methoxyphenyl)propyl)piperidin-3-yl)-1H-indol-4-ol] | < 100 nM | – |
| COc1ccccc1CCCN1CCC(c2c[nH]c3ccccc23)C1 (centres unmarked) [Compound 5, 3-(1-(3-(2-methoxyphenyl)propyl)pyrrolidin-3-yl)-1H-indole] | < 100 nM | – |
| COc1ccccc1CCCN1CCC(n2ccc3cc(F)ccc32)C1 (centres unmarked) [Compound 7] | < 100 nM | – |
| COc1ccccc1CCCN1CCC(c2c[nH]c3cccc(F)c23)C1 (centres unmarked) [Compound 8] | < 100 nM | – |
| COc1ccccc1CCCN1CCC(c2c[nH]c3cccc(OC)c23)C1 (centres unmarked) [Compound 9] | < 100 nM | – |
| COc1ccccc1C1CCN(CCc2c[nH]c3cccc(O)c23)CC1 [Compound 10, 3-(2-(4-(2-methoxyphenyl)piperidin-1-yl)ethyl)-1H-indol-4-ol] | < 100 nM | – |
| COc1ccccc1CCCN1CC(c2c[nH]c3ccccc23)C1 [Compound 11, 3-(1-(3-(2-methoxyphenyl)propyl)azetidin-3-yl)-1H-indole] | < 100 nM | – |
| COc1ccccc1CCCN1C2CCC1C(c1c[nH]c3ccccc13)C2 (centres unmarked) [Compound 16, 3-(7-(3-(2-methoxyphenyl)propyl)-7-azabicyclo[2.2.1]heptan-2-yl)-1H-indole] | < 100 nM | – |
| COc1ccccc1CCCN1CCC(c2c[nH]c3ncccc23)C1 (centres unmarked) [Compound 22] | < 100 nM | – |
| COc1ccccc1CCCN1CCC(c2n[nH]c3ccccc23)C1 (centres unmarked) [Compound 23] | < 100 nM | – |
| COc1ccccc1CCCN1CCOC(c2c[nH]c3ccccc23)C1 (centres unmarked) [Compound 29, 2-(1H-indol-3-yl)-4-(3-(2-methoxyphenyl)propyl)morpholine] | – | < 100 nM |
| COc1ccccc1CCCN1CCC(c2n[nH]c3ccncc23)C1 (centres unmarked) [Compound 30] | < 100 nM | – |
| COc1ccccc1CCCN1CCOC(c2c[nH]c3ccncc23)C1 (centres unmarked) [Compound 34, 4-(3-(2-methoxyphenyl)propyl)-2-(1H-pyrrolo[3,2-c]pyridin-3-yl)morpholine] | – | < 100 nM |
| COc1ccccc1CCCN1CCOC(c2n[nH]c3ccccc23)C1 (centres unmarked) [Compound 37, 3-(4-(3-(2-methoxyphenyl)propyl)morpholin-2-yl)-1H-indazole] | – | < 100 nM |
| Oc1cccc2[nH]cc(C3CN(CCCc4cc(F)ccc4F)CCO3)c12 (centres unmarked) [Compound 40] | < 100 nM | – |
| c1ccc2c(C3CCN(CCCc4nncs4)C3)c[nH]c2c1 (centres unmarked) [Compound 50, 3-(1-(3-(1,3,4-thiadiazol-2-yl)propyl)pyrrolidin-3-yl)-1H-indole] | – | < 100 nM |
| c1ccc2c(C3CCN(CCCc4ncsn4)C3)c[nH]c2c1 (centres unmarked) [Compound 55, 3-(1-(3-(1,2,4-thiadiazol-3-yl)propyl)pyrrolidin-3-yl)-1H-indole] | < 100 nM | – |
| Cn1cc(CCCN2CCC(c3c[nH]c4ccccc34)C2)cn1 (centres unmarked) [Compound 57, 3-(1-(3-(1-methyl-1H-pyrazol-4-yl)propyl)pyrrolidin-3-yl)-1H-indole] | < 100 nM | – |
| Cn1cc(CCCN2CCC(n3ccc4cc(F)ccc43)C2)cn1 (centres unmarked) [Compound 61] | < 100 nM | – |
| Cn1cc(CCCN2CCC(c3noc4cc(F)ccc34)C2)cn1 (centres unmarked) [Compound 68] | < 100 nM | – |
| Cn1cc(CCCN2CCC(c3n[nH]c4ccccc34)C2)cn1 (centres unmarked) [Compound 69, 3-(1-(3-(1-methyl-1H-pyrazol-4-yl)propyl)pyrrolidin-3-yl)-1H-indazole] | – | < 100 nM |
| CC(C)n1cnnc1CCCN1CCC(c2c[nH]c3ccccc23)C1 (centres unmarked) [Compound 79] | < 100 nM | – |
| CC(C)n1cnnc1CCCN1CCC(n2ccc3cc(F)ccc32)C1 (centres unmarked) [Compound 80] | < 100 nM | – |
| Fc1ccc2c(C3CCN(CCCc4nncn4CC(F)(F)F)C3)c[nH]c2c1 (centres unmarked) [Compound 83] | < 100 nM | – |

| Structure (SMILES) | Ki [1] | Ki |
| --- | --- | --- |
| CC(C)n1cnnc1CCCN1CCC(c2c[nH]c3cc(F)ccc23)C1 (centres unmarked) [Compound 84] | < 100 nM | – |
| Cc1nnc(CCCN2CCC(c3c[nH]c4ccccc34)C2)n1C(C)C (centres unmarked) [Compound 86, 3-(1-(3-(5-methyl-4-(propan-2-yl)-4H-1,2,4-triazol-3-yl)propyl)pyrrolidin-3-yl)-1H-indole] | < 100 nM | – |
| CC1CN(CCCc2nncn2C(C)C)CC1c1c[nH]c2cc(F)ccc12 (centres unmarked) [Compound 90, 6-fluoro-3-(4-methyl-1-(3-(4-(propan-2-yl)-4H-1,2,4-triazol-3-yl)propyl)pyrrolidin-3-yl)-1H-indole] | < 100 nM | – |
| CC(CCc1nncn1C(C)C)N1CCC(c2c[nH]c3cc(F)ccc23)C1 (centres unmarked) [Compound 91] | < 100 nM | – |
| Fc1ccc2c(C3CCN(CCCc4nncn4C4CCC4)C3)c[nH]c2c1 (centres unmarked) [Compound 92] | < 100 nM | – |
| Fc1ccc2c(C3CCN(CCCc4nncn4C4CC4)C3)c[nH]c2c1 (centres unmarked) [Compound 99] | < 100 nM | – |
| CC(C)n1c(CCCN2CCC(c3c[nH]c4cc(F)ccc34)C2)nnc1C(F)(F)F (centres unmarked) [Compound 100] | < 100 nM | – |
| Cc1nnc(CCCN2CCC(n3ccc4cc(F)ccc43)C2)n1C(C)C (centres unmarked) [Compound 103] | < 100 nM | – |
| COc1ncncc1CCCN1CCC(c2c[nH]c3ccccc23)C1 (centres unmarked) [Compound 132, 3-(1-(3-(4-methoxypyrimidin-5-yl)propyl)pyrrolidin-3-yl)-1H-indole] | < 100 nM | – |
| Oc1cccc2[nH]cc(C3CCN(CCc4coc5c(F)cccc45)C3)c12 (centres unmarked) [Compound 135] | < 100 nM | – |
| CC(C)c1nnc2n1CCC(CN1CCC(c3c[nH]c4ccccc34)C1)C2 (centres unmarked) [Compound 139, 7-((3-(1H-indol-3-yl)pyrrolidin-1-yl)methyl)-3-isopropyl-5,6,7,8-tetrahydro-[1,2,4]triazolo[4,3-a]pyridine] | < 100 nM | – |
| c1ccc2c(c1)CC(CN1CCC(c3c[nH]c4ccncc34)C1)CO2 (centres unmarked) [Compound 141] | < 100 nM | – |
| c1ccc2c(C3CCN(CCc4nnc5sccn45)C3)c[nH]c2c1 (centres unmarked) [Compound 143, 3-(2-(3-(1H-indol-3-yl)pyrrolidin-1-yl)ethyl)thiazolo[2,3-c][1,2,4]triazole] | < 100 nM | – |
| c1ccc2c(C3CCN(CC4CCn5c(nnc5C5CC5)C4)C3)c[nH]c2c1 (centres unmarked) [Compound 145, 3-(1-((3-cyclopropyl-SH,6H,7H,8H-[1,2,4]triazolo[4,3-a]pyridine-7-yl)methyl)pyrrolidin-3-yl)-1H-indole] | < 100 nM | – |
| COc1cccc2nnc(CCN3CCC(c4c[nH]c5cc(F)ccc45)C3)n12 (centres unmarked) [Compound 147, 6-fluoro-3-(1-(2-(5-methoxy-(1,2,4)triazolo(4,3-a)pyridin-3-yl)ethyl)pyrrolidin-3-yl)-1H-indole] | < 100 nM | – |
| COc1ccc(F)c2nnc(CCN3CC(c4c[nH]c5cc(F)ccc45)C3)n12 [Compound 148, 6-fluoro-3-(1-(2-(8-fluoro-5-methoxy-(1,2,4)triazolo(4,3-a)pyridin-3-yl)ethyl)azetidin-3-yl)-1H-indole] | < 100 nM | – |
| Fc1ccc2c(C3CCN(CCc4nnc5c(F)cccn45)C3)c[nH]c2c1 (centres unmarked) [Compound 149, 6-fluoro-3-(1-(2-(8-fluoro-(1,2,4)triazolo[4,3-a]pyridin-3-yl)ethyl)pyrrolidin-3-yl)-1H-indole] | < 100 nM | – |
| Oc1cccc2[nH]cc(C3CCN(CCCc4ncon4)C3)c12 (centres unmarked) [Compound 173, 3-(1-(3-(1,2,4-oxadiazol-3-yl)propyl)pyrrolidin-3-yl)-1H-indol-4-ol] | < 100 nM | – |
| CC(C)c1nc(CCCN2CCC(c3c[nH]c4cccc(O)c34)C2)no1 (centres unmarked) [Compound 174, 3-(1-(3-(5-isopropyl-1,2,4-oxadiazol-3-yl)propyl)pyrrolidin-3-yl)-1H-indol-4-ol] | < 100 nM | – |
| CC(C)c1nc(CCCN2CCC(c3n[nH]c4ccccc34)C2)no1 (centres unmarked) [Compound 175, 3-(3-(-3-(1H-indazol-3-yl)pyrrolidin-1-yl)propyl)-5-isopropyl-1,2,4-oxadiazole] | < 100 nM | – |
| c1ccc2c([C@H]3CCN(CCCn4nccn4)C3)c[nH]c2c1 [Compound 177, (R)-3-(1-(3-(2H-1,2,3-triazol-2-yl)propyl)pyrrolidin-3-yl)-1H-indole] | < 100 nM | – |
| c1ccc2c([C@@H]3CCN(CCCn4nccn4)C3)c[nH]c2c1 [Compound 178, (S)-3-(1-(3-(2H-1,2,3-triazol-2-yl)propyl)pyrrolidin-3-yl)-1H-indole] | < 100 nM | – |
| C1=C(c2c[nH]c3ccccc23)CN(CCCn2nccn2)CC1 [Compound 179, 3-(1-(3-(2H-1,2,3-triazol-2-yl)propyl)-1,2,5,6-tetrahydropyridin-3-yl)-1H-indole] | < 100 nM | – |
| Oc1cccc2[nH]cc([C@H]3CCN(CCCn4nccn4)C3)c12 [Compound 181, (R)-3-(1-(3-(2H-1,2,3-triazol-2-yl)propyl)pyrrolidin-3-yl)-1H-indol-4-ol] | < 100 nM | – |
| Cc1nn(CCCN2CC[C@H](c3c[nH]c4cccc(O)c34)C2)nc1C [Compound 185, (R)-3-(1-(3-(4,5-dimethyl-2H-1,2,3-triazol-2-yl)propyl)pyrrolidin-3-yl)-1H-indol-4-ol] | < 100 nM | – |
